In ChEMBL document CHEMBL1201862, “PubChem BioAssay data set” (2004):
Activity calls are given as the source filed them.

Columns and labels:
[1] = biological target: T1, 1-phosphatidylinositol 4,5-bisphosphate phosphodiesterase gamma-1 (Homo sapiens, UniProt P19174); assay: Counterscreen for inhibitors of phospholipase C isozymes (PLC-B3): Fluorescence-based biochemical high throughput dose response assay to identify inhibitors of phospholipase C isozymes (PLC-gamma1).
T1 sequence (P19174 whole entry): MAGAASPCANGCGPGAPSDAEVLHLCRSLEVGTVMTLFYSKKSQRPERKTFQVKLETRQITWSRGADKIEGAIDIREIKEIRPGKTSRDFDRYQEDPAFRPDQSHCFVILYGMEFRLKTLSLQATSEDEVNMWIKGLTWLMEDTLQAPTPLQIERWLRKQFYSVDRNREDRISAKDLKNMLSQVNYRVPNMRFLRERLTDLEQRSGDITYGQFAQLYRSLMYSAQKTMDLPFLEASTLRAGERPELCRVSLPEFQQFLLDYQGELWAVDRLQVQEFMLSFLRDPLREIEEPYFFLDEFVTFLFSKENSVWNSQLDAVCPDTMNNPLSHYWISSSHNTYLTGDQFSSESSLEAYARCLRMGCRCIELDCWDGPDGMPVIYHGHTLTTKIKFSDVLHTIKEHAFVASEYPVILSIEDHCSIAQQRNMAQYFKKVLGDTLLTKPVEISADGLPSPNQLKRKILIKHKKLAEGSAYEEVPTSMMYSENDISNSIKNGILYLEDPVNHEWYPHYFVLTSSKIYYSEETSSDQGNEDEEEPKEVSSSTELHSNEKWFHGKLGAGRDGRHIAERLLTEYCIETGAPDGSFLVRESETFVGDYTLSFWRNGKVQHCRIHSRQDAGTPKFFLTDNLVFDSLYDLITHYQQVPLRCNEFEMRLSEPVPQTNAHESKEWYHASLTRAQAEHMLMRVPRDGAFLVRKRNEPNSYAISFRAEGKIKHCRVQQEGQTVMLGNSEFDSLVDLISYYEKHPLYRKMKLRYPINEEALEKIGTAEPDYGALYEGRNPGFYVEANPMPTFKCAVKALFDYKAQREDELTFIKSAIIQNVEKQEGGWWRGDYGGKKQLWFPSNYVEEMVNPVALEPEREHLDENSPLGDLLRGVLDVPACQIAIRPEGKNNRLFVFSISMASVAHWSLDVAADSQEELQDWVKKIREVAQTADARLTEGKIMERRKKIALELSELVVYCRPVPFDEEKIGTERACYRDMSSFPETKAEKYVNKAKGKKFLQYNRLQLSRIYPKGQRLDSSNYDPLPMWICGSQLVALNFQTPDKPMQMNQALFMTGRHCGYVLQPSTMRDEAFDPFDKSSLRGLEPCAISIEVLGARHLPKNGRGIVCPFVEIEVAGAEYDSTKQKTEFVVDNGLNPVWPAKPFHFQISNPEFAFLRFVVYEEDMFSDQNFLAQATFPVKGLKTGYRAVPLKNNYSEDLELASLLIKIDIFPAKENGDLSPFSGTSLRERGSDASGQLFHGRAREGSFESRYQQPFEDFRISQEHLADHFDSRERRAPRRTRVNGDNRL

[2] = biological target: T2, 1-phosphatidylinositol 4,5-bisphosphate phosphodiesterase beta-3 (Homo sapiens, UniProt Q01970); assay: Fluorescence-based biochemical high throughput dose response assay to identify inhibitors of phospholipase C isozymes (PLC-B3).
T2 sequence (Q01970 whole entry): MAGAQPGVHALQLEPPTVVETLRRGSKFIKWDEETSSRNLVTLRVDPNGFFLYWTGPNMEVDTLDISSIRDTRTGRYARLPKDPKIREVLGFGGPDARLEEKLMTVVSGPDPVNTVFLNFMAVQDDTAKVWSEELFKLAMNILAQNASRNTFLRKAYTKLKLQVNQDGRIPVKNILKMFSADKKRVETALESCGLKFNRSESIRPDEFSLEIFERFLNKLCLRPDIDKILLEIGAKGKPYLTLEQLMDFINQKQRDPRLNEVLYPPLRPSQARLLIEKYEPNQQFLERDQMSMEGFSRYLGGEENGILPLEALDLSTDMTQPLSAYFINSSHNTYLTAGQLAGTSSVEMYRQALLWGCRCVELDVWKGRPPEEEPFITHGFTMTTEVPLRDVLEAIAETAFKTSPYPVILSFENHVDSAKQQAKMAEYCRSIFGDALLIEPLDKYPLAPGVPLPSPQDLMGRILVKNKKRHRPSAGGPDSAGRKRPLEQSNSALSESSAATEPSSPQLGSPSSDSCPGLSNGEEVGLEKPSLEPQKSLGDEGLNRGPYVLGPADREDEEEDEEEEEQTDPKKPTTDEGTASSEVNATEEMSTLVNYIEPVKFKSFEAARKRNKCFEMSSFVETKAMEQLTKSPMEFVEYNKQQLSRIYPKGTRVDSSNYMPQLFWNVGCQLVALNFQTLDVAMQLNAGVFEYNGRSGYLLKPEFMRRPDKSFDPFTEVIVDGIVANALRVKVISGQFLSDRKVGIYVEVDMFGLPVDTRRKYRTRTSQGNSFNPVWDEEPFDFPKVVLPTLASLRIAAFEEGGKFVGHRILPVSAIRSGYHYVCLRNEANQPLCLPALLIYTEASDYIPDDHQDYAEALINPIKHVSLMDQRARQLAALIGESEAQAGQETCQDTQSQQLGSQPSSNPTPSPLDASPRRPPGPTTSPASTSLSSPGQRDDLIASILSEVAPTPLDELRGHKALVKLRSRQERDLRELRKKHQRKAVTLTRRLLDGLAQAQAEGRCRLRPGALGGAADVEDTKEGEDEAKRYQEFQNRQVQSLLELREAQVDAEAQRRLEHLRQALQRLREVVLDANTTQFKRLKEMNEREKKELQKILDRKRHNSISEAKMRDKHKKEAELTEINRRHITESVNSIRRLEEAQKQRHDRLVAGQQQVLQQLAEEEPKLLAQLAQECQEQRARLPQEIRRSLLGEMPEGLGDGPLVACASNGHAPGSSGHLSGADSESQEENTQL

Paired box protein Pax-8 = Paired box protein Pax-8 (Homo sapiens, UniProt Q06710); assay: inhibitors of PAX8-driven TPO luciferase reporter, dose response, RMG-I cells, cherry-pick (AID 687027); assay type: functional, cell-based;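 note: luciferase reporter driven by Pax8 target thyroperoxidase promoter measured by SteadyGlo luminescence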
Paired box protein Pax-8, sequence (Q06710 whole entry): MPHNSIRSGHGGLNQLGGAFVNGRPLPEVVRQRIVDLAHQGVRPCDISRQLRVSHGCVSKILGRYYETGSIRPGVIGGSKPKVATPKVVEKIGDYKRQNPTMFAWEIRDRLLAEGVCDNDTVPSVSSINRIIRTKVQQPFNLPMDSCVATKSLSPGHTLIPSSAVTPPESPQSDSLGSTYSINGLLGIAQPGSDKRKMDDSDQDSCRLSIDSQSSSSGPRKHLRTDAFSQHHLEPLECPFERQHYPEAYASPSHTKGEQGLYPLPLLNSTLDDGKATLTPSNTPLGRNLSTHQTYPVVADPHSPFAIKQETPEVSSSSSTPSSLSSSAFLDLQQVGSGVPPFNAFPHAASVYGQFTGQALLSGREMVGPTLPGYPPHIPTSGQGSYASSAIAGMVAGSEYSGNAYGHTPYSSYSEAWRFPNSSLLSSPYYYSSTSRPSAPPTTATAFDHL

[3] = ADAM10 inhibitors, peptide cleavage, dose response, biochemical, QFRET (AID 743254);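 note: ADAM10 enzyme with the DM2 quenched FRET peptide as substrate; EDANS fluorescence gain as the protease cuts the substrate; inhibitor potency against ADAM10 proteolytic activity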
[4] = biological target: Disintegrin and metalloproteinase domain-containing protein 17 (Homo sapiens, UniProt P78536); assay: ADAM17 protease inhibitors, dose response, counter-screen for ADAM10 exosite inhibitor project, biochemical, quenched FRET substrate (AID 743253)
Disintegrin and metalloproteinase domain-containing protein 17, sequence (P78536 whole entry, the tested form may be a part): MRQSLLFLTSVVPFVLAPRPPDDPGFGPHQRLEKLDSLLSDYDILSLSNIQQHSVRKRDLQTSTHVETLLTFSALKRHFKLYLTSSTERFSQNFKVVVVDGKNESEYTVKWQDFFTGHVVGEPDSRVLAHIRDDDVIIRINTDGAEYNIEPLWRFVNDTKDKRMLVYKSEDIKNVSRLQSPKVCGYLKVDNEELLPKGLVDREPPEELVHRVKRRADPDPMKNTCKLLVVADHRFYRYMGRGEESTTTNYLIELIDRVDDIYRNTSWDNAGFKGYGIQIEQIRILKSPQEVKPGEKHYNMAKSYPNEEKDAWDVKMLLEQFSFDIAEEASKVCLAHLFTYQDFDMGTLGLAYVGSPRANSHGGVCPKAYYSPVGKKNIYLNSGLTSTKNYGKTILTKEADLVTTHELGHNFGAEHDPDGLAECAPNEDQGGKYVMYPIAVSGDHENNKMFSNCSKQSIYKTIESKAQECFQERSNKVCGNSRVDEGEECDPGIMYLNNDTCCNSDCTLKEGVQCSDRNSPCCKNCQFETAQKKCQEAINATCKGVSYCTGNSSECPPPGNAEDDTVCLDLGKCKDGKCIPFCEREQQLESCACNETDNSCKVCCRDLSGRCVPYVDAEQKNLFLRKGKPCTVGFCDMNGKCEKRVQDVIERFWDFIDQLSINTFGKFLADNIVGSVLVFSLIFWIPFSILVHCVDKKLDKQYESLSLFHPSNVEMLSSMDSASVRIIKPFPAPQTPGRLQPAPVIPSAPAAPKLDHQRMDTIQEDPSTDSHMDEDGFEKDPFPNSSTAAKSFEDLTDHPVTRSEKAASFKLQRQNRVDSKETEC

[5] = biological target: Peroxisome proliferator-activated receptor gamma/Nuclear receptor coactivator 1 (Homo sapiens, UniProt P37231); assay: (§1) TR-FRET dose response biochemical High Throughput Screening assay for agonists of the steroid receptor coactivator 1 (SRC-1) recruitment by the peroxisome proliferator-activated receptor gamma (PPAR gamma): non-selective agonists. [Related pubchem assays (depositor defined):AID1300, AID1808, AID504735, AID631]; assay type: protein assay
[6] = biological target: Peroxisome proliferator-activated receptor gamma/Nuclear receptor coactivator 3 (Homo sapiens, UniProt P37231); assay: as §1, with “3 (SRC-3)” for “1 (SRC-1)”, “assays: 1301 (Confirmation screen.), 1048 (Primary screen.)]” for “assays (depositor defined):AID1300, AID1808, AID504735, AID631]”; assay type: functional
[7] = biological target: Peroxisome proliferator-activated receptor gamma/Nuclear receptor coactivator 2 (Homo sapiens, UniProt P37231); assay: TR-FRET dose response biochemical High Throughput Screening assay for agonists of the steroid receptor coactivator 2 (SRC-2) recruitment by the peroxisome proliferator-activated receptor gamma (PPAR gamma): non-selective agonists. [Related pubchem assays: 1297, 1032 ]; assay type: functional
Peroxisome proliferator-activated receptor gamma/Nuclear receptor coactivator 2, sequence (P37231 whole entry): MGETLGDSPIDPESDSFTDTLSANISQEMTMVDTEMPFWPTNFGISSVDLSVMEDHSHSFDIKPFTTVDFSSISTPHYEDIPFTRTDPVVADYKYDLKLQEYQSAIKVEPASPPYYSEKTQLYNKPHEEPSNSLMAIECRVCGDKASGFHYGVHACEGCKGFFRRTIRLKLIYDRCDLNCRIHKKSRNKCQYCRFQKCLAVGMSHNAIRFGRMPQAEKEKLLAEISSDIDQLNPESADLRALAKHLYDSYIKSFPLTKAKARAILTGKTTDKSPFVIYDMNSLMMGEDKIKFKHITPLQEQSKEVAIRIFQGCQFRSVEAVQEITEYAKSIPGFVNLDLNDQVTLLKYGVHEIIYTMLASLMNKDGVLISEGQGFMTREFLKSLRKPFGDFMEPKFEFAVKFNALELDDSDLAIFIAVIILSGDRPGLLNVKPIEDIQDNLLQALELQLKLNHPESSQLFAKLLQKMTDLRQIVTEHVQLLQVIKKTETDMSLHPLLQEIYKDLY
Peroxisome proliferator-activated receptor gamma/Nuclear receptor coactivator 2, sequence (Q15596 whole entry, further chain): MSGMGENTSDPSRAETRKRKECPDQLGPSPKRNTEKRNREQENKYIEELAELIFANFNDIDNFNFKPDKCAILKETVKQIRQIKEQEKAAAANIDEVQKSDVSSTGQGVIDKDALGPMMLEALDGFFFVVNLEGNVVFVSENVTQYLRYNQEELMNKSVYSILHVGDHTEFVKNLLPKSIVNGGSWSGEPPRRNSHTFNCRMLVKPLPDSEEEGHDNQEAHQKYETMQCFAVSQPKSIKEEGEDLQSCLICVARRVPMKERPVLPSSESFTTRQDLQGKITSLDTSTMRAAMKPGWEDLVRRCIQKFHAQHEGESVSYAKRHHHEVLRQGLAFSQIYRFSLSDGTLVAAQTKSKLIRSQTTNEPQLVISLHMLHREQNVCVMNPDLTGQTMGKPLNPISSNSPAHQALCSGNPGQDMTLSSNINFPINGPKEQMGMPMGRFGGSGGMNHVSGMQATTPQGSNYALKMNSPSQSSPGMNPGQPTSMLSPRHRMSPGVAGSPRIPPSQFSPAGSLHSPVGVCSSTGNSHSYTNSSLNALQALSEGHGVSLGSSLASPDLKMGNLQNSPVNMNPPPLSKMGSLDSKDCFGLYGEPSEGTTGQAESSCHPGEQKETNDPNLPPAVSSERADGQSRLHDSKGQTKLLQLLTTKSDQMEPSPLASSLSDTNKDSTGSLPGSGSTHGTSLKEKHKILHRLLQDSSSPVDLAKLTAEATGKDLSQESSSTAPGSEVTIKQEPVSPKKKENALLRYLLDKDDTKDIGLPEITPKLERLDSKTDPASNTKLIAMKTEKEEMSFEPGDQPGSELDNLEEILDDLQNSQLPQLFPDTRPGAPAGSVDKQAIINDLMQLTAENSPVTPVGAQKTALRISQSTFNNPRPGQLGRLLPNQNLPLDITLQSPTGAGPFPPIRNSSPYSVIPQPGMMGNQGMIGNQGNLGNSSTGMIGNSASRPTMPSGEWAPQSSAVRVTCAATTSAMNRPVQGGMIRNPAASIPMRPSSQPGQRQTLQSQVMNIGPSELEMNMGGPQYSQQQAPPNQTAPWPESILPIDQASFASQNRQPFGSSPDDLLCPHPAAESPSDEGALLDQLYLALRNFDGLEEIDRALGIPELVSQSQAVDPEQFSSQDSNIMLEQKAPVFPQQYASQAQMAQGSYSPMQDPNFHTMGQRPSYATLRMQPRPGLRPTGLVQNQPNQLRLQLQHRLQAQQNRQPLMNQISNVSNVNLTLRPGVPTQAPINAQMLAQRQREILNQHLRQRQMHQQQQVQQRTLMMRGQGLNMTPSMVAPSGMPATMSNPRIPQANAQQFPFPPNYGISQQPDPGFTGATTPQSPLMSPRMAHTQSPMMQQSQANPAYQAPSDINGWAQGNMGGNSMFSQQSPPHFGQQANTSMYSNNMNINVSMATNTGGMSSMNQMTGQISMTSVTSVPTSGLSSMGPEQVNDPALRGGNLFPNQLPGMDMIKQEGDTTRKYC

[8] = NIH-3T3 fibroblast cytotoxicity, dose response, cytotoxicity control, cell-based, fluorescence, Alamar Blue, secondary assay (AID 2327); assay type: functional;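 note: NIH-3T3 mouse fibroblasts cultured with fluconazole at 8 µg/mL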
[9] = inhibitors of firefly luciferase expression or activity, dose response, H4 neuroglioma cells, luminescence (AID 1990); assay type: functional, cell-based
[10] = Luminescence Cell-Based Dose Response HTS to Identify Inhibitors of 5'UTR Stem-Loop Driven Prion Protein mRNA Translation in H4 Neuroglioblastoma Cells. [Related pubchem assays: 1827 (Project Summary), 1813 (Primary HTS)]; assay type: functional
[11] = inhibitors of SNCA 5'UTR-driven reporter translation, confirmation, H4 neuroglioma cells, luminescence (AID 1988); assay type: functional, cell-based
[12] = C. albicans growth with fluconazole, confirmation, fluorescence, retest (AID 2467); assay type: functional, cell-based
[13] = biological target: Heat shock protein HSP 90-alpha (Homo sapiens, UniProt P07900); assay type: functional, organism-based
INS1 = assay: beta cell apoptosis inhibitors, cytokine rescue, dose response, luminescence, retest (AID 449756); assay type: functional, cell-based; conditions: Rattus norvegicus;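 note: cell death triggered by IL-1 beta plus TNF-alpha plus IFN-gamma mixture; protective hits raise ATP signal compared with cytokine alone wells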

For CCN(C(=O)COC(=O)c1ccc(C=O)cc1)c1c(N)n(Cc2ccccc2)c(=O)[nH]c1=O, the IC50 [1] was > 122 µM (inactive) and the IC50 [2] was > 122 µM (inactive).

For C=CCC[C@@H](Cc1ccc(F)cc1)C(=O)OC[C@@H](Cc1c[nH]c2ccccc12)NC(=O)[C@H](CC=C)CC(=O)N(CCO)Cc1ccccc1, the AC50 (Paired box protein Pax-8) was 10.9 µM (active), the IC50 [3] was 15.4 µM (inactive) and the IC50 [4] was > 69.5 µM (inactive).

In the case of NS(=O)(=O)c1ccc(N/N=C/c2ccc(O)cc2O)c([N+](=O)[O-])c1, the IC50 [1] is reported as > 123 µM (inactive) and the IC50 [2] is reported as > 123 µM (inactive).

For COc1ccc(NC(C)C(=O)N/N=C/c2ccccc2OCc2cccc(Br)c2)cc1 (stereo unspecified), the EC50 [5] was > 79.4 µM (inactive), the EC50 [6] was > 79.4 µM (not active) and the EC50 [7] was > 79.4 µM (not active). For the same compound, the IC50 [3] was > 69.5 µM (inactive) and the IC50 [4] was > 69.5 µM (inactive).

In the case of CCOc1ccc(C(Nc2cccnc2)c2cc(Cl)c3cccnc3c2O)cc1 (stereo unspecified), the EC50 [8] is reported as 7.98 µM (inconclusive), the EC50 [9] is reported as 12.1 µM (active) and the EC50 [10] is reported as 13.7 µM (active). The EC50 [11] was > 120 µM (not active), the EC50 [12] was 0.348 µM (active) and the AC50 [13] was 2.68 µM (active). The AC50 (INS1) was 3.6 µM (active), the IC50 [3] was 5.53 µM (active) and the IC50 [4] was 9.11 µM (active).
